Measurements from patent US6342526B1, “Method for enhancing or achieving training-induced bradycardia with Carnitine” (Lonza Ltd., priority 2000, dated 2002).

Key:
swine = experiment: Training-induced bradycardia in swine; assay type: in vivo
horses [1] = experiment: Heart rate during treadmill exercise training with oral L-carnitine supplementation; assay type: in vivo, horse
rats = experiment: Training-induced bradycardia in rats; assay type: in vivo, rat
[2] = LC concentration in M. glutaeus med. muscle biopsies; assay type: in vivo, horse; conditions: horses
Description: LC was obtained as commercially available free L-carnitine (Carniking® from Lonza Ltd.). After a first standardised exercise test (SET) during the whole experiment period (5 weeks training, 15 weeks detraining) a group of 4 Trotters received 10 g of LC/d offered with concentrate in two feed portions daily, as essentially described in example 1, while a group of 4 Trotters served as non-supplemented controls. All horses were two years old and were descendants from 1 stallion. The treadmill training program consisted of 8 aerobic, static exercise sessions (15 min warmup, 60 min exercise at an intensity level which maintained a blood lactate concentration of 2.0 mmol/l (VLA 2.0)) and 8 anaerobic exercise sessions (15 min, warm up, followed by 15 steps of graded exercise intensities of 1 min duration each, starting at VLA 4.0). During the dynamic exercises running speed was incremented every minute by 0.3 m/s and ranged from about of 5 m/s to 14 m/s. […]
Muscle biopsies from M. glutaeus med. and venous blood samples were collected at the beginning (1st SET) and the end of training (2nd SET) and at the beginning and the end of the 1st (beginning of training) and 8th (end of training) static and dynamic exercise and after 5 and 10 weeks of detraining. […] Heart rates were continuously monitored during exercises with a polar horse tester.

horses [3] = experiment: Plasma glucose and blood lactate during standardised exercise test (SET); assay type: in vivo, horse; conditions: 10 g LC/d

In the case of `C[N+](C)(C)C[C@H](O)CC(=O)[O-]` [L-carnitine], the “Enhancement of training-induced bradycardia” value (swine) is reported as “enhancement of training-induced bradycardia was equally achieved”, the “Heart rate at end of incremented, high intensity (anaerobic) exercise, post-training” value (horses [1]; N=4, 10 g LC/d, end of 15 steps of +0.3 m/s, after 5 weeks training, mean) is reported as 196 beats/min and the “Heart rate at end of incremented, high intensity (anaerobic) exercise, pre-training” value (horses [1]; N=4, 10 g LC/d, end of 15 steps of +0.3 m/s, pre-training, mean) is reported as 209 beats/min. For the same compound, the “Heart rate at start of incremented, high intensity (anaerobic) exercise, post-training” value (horses [1]; N=4, 10 g LC/d, start at VLA 4.0, after 5 weeks training, mean) was 143 beats/min, the “Heart rate at start of incremented, high intensity (anaerobic) exercise, pre-training” value (horses [1]; N=4, 10 g LC/d, start at VLA 4.0, pre-training, mean) was 150 beats/min and the “Decline of post-training heart rate at equivalent work loads versus start of training” value (horses [1]; SET, 10 g LC/d for 5 weeks training, FIG. 2) was 7 beats/minute. The “Change in heart rate at increasing exercise work loads, end versus start of training” value (horses [1]; SET, treadmill speeds 5 to 9 m/s, 10 g LC/d, 5 weeks) was “significant (p<0.001) reduction in heart rate”, the “Heart rate during moderate intensity (aerobic) exercise, post-training” value (horses [1]; Trotters N=4, 10 g LC/d oral, 60 min treadmill at VLA 2.0, after 5 weeks training, mean ± SD) was 122 ± 6 beats/min and the “Heart rate during moderate intensity (aerobic) exercise, pre-training” value (horses [1]; Trotters N=4, 10 g LC/d oral, 60 min treadmill at VLA 2.0, pre-training, mean ± SD) was 130 ± 7 beats/min. For the same compound, the “Enhancement of training-induced bradycardia” value (rats) was “enhancement of training-induced bradycardia was equally achieved”, the “Elevation of LC concentration in M. glutaeus med.” value ([2]; 10 g LC/d oral, five weeks of supplementation) was “about 50%” and the “LC concentration in the muscle during detraining period” value ([2]; 10 g LC/d, whole detraining period) was “remained at this high level”. The “Exercise-induced increase of blood lactate” value (horses [3]; FIG. 1) was “lower” and the “Concentration of glucose in plasma during exercise, second SET versus first SET” value (horses [3]; end of 5 weeks training) was “lower concentrations of glucose in plasma during exercise”.
